Experimental data published in PubChem BioAssay AID2060599 (Molecular Pharmacology Branch, DTP, NCI, 2025).
Values belong to the molecule of their own block, whether it stands above or below them.

Test system: 817829-284-R-J1-PDC complex spheroids, viability
Assay: Anticancer human tumor 817829-284-R-J1-PDC patient-derived colon adenocarcinoma cell line growth inhibition [CLK]
Settings: for viability, T/C: stronger effect = lower value
From the text: A high-throughput screen of multi-cell type tumor spheroids was designed to identify active combinations of […] and targeted small molecules. Complex spheroids include a stromal component modeled by human endothelial cells (HUVEC) and fibroblasts modeled by human mesenchymal stem cells (MSCs). The concentration ranges selected for each drug and investigational agent were based upon clinically achievable concentrations if the clinical Cmax of the agent was known.
Compounds. The drugs and investigational agents: cirtuvivint (SM08502; NSC835563), CC-671 (NSC850746), vemurafenib (NSC761431), tapotoclax (NSC804041), sotorasib (NSC818433), adagrasib (NSC831453), MRTX-1133 (NSC836407), BAY2416964 (NSC825713), copanlisib (NSC816437), inavolisib (NSC800729), abemaciclib (NSC768073), osimertinib (NSC779217), entinostat (NSC756642), eltanexor (KPT-8602, NSC794443), venetoclax (NSC766270), ceralasertib (NSC777638), bortezomib (NSC756655), olaparib (NSC753686), talazoparib (NSC767125), alisertib (NSC759677), peposertib (NSC802822), gemcitabine (NSC613327), 5-fluorouracil (NSC19893), SN-38 (NSC673596), oxaliplatin (NSC266046), paclitaxel (NSC125973), and doxorubicin (NSC123127), were obtained from the National Cancer Institute (NCI) Developmental Therapeutics Program Chemical Repository. The FDA-approved anticancer drug set is available from the Developmental Therapeutics Program at https://dtp.cancer.gov/organization/dscb/obtaining/available plates.htm. […] The stock solutions were prepared in dimethyl sulfoxide (DMSO, Sigma-Aldrich, St. Louis, MO, cat. D2650), except for the platinum complexes which were prepared in saline (Quality Biological, Gaithersburg, MD, cat. 114-055-101), at 800-fold the tested concentration and stored at -70 degrees C prior to their use. All drugs and investigational agents were tested over a range starting from a high concentration at or near the clinical Cmax and decreasing in half-log increments. If the clinical Cmax for an agent had not been determined, the highest concentration tested was 10 microM.
Cell Culture. All cells were maintained in an incubator at 37 degrees C and 5% CO2 with 95% humidity. The PDC lines were cultured according to standard operating procedures established by the NCI PDMR. Briefly, all PDCs were thawed and cultured in Matrigel-coated flasks prepared with a working solution of 1X Ham's F-12 nutrient mix, without supplementation (Invitrogen, Waltham, MA, cat. 11765054), 100 U/mL penicillin-streptomycin (Invitrogen, cat. 15140122), and 2.5% Matrigel (Corning Inc., Corning, NY, cat. 354248) for the first three passages. The 947758-054-R-J2-PDC line was cultured in 6B/Colon 1A media, which includes advanced DMEM/F-12 (Thermo Fisher Scientific, cat. 12634028), 10 mM HEPES (Thermo Fisher Scientific, cat. 15630080), 1X GlutaMAX supplement (Thermo Fisher Scientific, cat. 35050061), 0.1 mg/mL primocin (InvivoGen, cat. ant-pm-2), 10% defined fetal bovine serum, heat inactivated (HyClone Laboratories Inc., cat. SH30070.03HI), 1.25 mM N-Acetyl-L-cysteine (Sigma-Aldrich, cat. A9165), 10 mM nicotinamide (Sigma-Aldrich, cat. N0636), 1X B-27 supplement (Thermo Fisher Scientific, cat. 17504044), 1X N-2 supplement (Thermo Fisher Scientific, cat. 17502048), and 10 microM Y-27632 dihydrochloride (Tocris Bioscience, cat. 1254). The 876862-298-R-J1-PDC was cultured in 6E media, which includes all 6B/Colon 1A media components plus 50% L-WRN conditioned media (ATCC, cat. CRL-3276), 50 ng/mL recombinant human EGF recombinant protein (hEGF; Thermo Fisher Scientific, cat. PHG0311), 10 ng/mL recombinant human fibroblast growth factor 10 (hGFG-10; PeproTech, cat. 100-26), 1 ng/mL recombinant human fibroblast growth factor 2 (hFGF-2; PeproTech, cat. 100-18B), and 1 µM prostaglandin E2 (PGE2; Tocris, cat. 2296). The 227483-062-R1-J1-PDC line was cultured in Panc media, containing all 6E components except hFGF-2, with the addition of 500 nM SB-431542 (Selleckchem, cat. S1067) and 10 nM gastrin (Tocris, cat. 3006). […]

[1] = curve of first compound, second compound 0.0316 µM
[2] = curve of first compound, second compound 0.1 µM
[3] = curve of first compound, second compound 0.316 µM
[4] = curve of first compound, second compound 1 µM
[5] = curve of first compound, second compound 3.16 µM
[6] = curve of first compound, second compound 10 µM
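Also: spheroids exposed to the agents for seven days before readout.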

IC50 [1]: < 31.6 nM
IC50 [2]: < 31.6 nM
IC50 [3]: < 31.6 nM
IC50 [4]: < 31.6 nM
IC50 [5]: < 31.6 nM
IC50 [6]: < 31.6 nM
SMILES: CC(Nc1ccc2c(c1)OCCn1cc(N3C(=O)OCC3C(F)F)nc1-2)C(N)=O (stereo unspecified) + CNC(=O)c1ccc(Nc2nc(OC3CCCC3)c3c(-c4ccc5nc(C)oc5c4)c[nH]c3n2)c(OC)c1
viability, T/C (second compound 0.0316 µM, first compound 0.0316 µM): 40%
viability, T/C (second compound 0.0316 µM, first compound 0.1 µM): 32.3%
viability, T/C (second compound 0.0316 µM, first compound 0.316 µM): 42.4%
viability, T/C (second compound 0.0316 µM, first compound 1 µM): 48.6%
viability, T/C (second compound 0.0316 µM, first compound 3.16 µM): 29.8%
viability, T/C (second compound 0.0316 µM, first compound 10 µM): 20.4%
viability, T/C (second compound 0.1 µM, first compound 0.0316 µM): 20.4%
viability, T/C (second compound 0.1 µM, first compound 0.1 µM): 26.4%
viability, T/C (second compound 0.1 µM, first compound 0.316 µM): 20.2%
viability, T/C (second compound 0.1 µM, first compound 1 µM): 20%
viability, T/C (second compound 0.1 µM, first compound 3.16 µM): 33.4%
viability, T/C (second compound 0.1 µM, first compound 10 µM): 15.1%
viability, T/C (second compound 0.316 µM, first compound 0.0316 µM): 37.9%
viability, T/C (second compound 0.316 µM, first compound 0.1 µM): 19.6%
viability, T/C (second compound 0.316 µM, first compound 0.316 µM): 19.9%
viability, T/C (second compound 0.316 µM, first compound 1 µM): 21.6%
viability, T/C (second compound 0.316 µM, first compound 3.16 µM): 18.5%
viability, T/C (second compound 0.316 µM, first compound 10 µM): 15.5%
viability, T/C (second compound 1 µM, first compound 0.0316 µM): 23.4%
viability, T/C (second compound 1 µM, first compound 0.1 µM): 20.8%
viability, T/C (second compound 1 µM, first compound 0.316 µM): 16.7%
viability, T/C (second compound 1 µM, first compound 1 µM): 17.6%
viability, T/C (second compound 1 µM, first compound 3.16 µM): 16.1%
viability, T/C (second compound 1 µM, first compound 10 µM): 15.3%
viability, T/C (second compound 3.16 µM, first compound 0.0316 µM): 22.2%
viability, T/C (second compound 3.16 µM, first compound 0.1 µM): 18.8%
viability, T/C (second compound 3.16 µM, first compound 0.316 µM): 16.5%
viability, T/C (second compound 3.16 µM, first compound 1 µM): 18.6%
viability, T/C (second compound 3.16 µM, first compound 3.16 µM): 13.1%
viability, T/C (second compound 3.16 µM, first compound 10 µM): 13.6%
viability, T/C (second compound 10 µM, first compound 0.0316 µM): 15.1%
viability, T/C (second compound 10 µM, first compound 0.1 µM): 16.6%
viability, T/C (second compound 10 µM, first compound 0.316 µM): 14%
viability, T/C (second compound 10 µM, first compound 1 µM): 18.2%
viability, T/C (second compound 10 µM, first compound 3.16 µM): 16.8%
viability, T/C (second compound 10 µM, first compound 10 µM): 9.33%

IC50 [1]: < 0.949 nM
IC50 [2]: < 0.949 nM
IC50 [3]: < 0.949 nM
IC50 [4]: < 0.949 nM
IC50 [5]: < 0.949 nM
IC50 [6]: < 0.949 nM
SMILES: CC(C)CC(NC(=O)C(Cc1ccccc1)NC(=O)c1cnccn1)B(O)O (stereo unspecified) + CNC(=O)c1ccc(Nc2nc(OC3CCCC3)c3c(-c4ccc5nc(C)oc5c4)c[nH]c3n2)c(OC)c1
viability, T/C (second compound 0.0316 µM, first compound 0.000949 µM): 31.9%
viability, T/C (second compound 0.0316 µM, first compound 0.003 µM): 0.67%
viability, T/C (second compound 0.0316 µM, first compound 0.00949 µM): 0.14%
viability, T/C (second compound 0.0316 µM, first compound 0.03 µM): 0.16%
viability, T/C (second compound 0.0316 µM, first compound 0.0949 µM): 0.14%
viability, T/C (second compound 0.0316 µM, first compound 0.3 µM): 0.09%
viability, T/C (second compound 0.1 µM, first compound 0.000949 µM): 25%
viability, T/C (second compound 0.1 µM, first compound 0.003 µM): 0.93%
viability, T/C (second compound 0.1 µM, first compound 0.00949 µM): 0.22%
viability, T/C (second compound 0.1 µM, first compound 0.03 µM): 0.17%
viability, T/C (second compound 0.1 µM, first compound 0.0949 µM): 0.11%
viability, T/C (second compound 0.1 µM, first compound 0.3 µM): 0.1%
viability, T/C (second compound 0.316 µM, first compound 0.000949 µM): 23%
viability, T/C (second compound 0.316 µM, first compound 0.003 µM): 0.45%
viability, T/C (second compound 0.316 µM, first compound 0.00949 µM): 0.13%
viability, T/C (second compound 0.316 µM, first compound 0.03 µM): 0.6%
viability, T/C (second compound 0.316 µM, first compound 0.0949 µM): 0.08%
viability, T/C (second compound 0.316 µM, first compound 0.3 µM): 0.13%
viability, T/C (second compound 1 µM, first compound 0.000949 µM): 14.7%
viability, T/C (second compound 1 µM, first compound 0.003 µM): 0.18%
viability, T/C (second compound 1 µM, first compound 0.00949 µM): 0.14%
viability, T/C (second compound 1 µM, first compound 0.03 µM): 0.09%
viability, T/C (second compound 1 µM, first compound 0.0949 µM): 0.13%
viability, T/C (second compound 1 µM, first compound 0.3 µM): 0.16%
viability, T/C (second compound 3.16 µM, first compound 0.000949 µM): 12.5%
viability, T/C (second compound 3.16 µM, first compound 0.003 µM): 0.39%
viability, T/C (second compound 3.16 µM, first compound 0.00949 µM): 0.14%
viability, T/C (second compound 3.16 µM, first compound 0.03 µM): 0.1%
viability, T/C (second compound 3.16 µM, first compound 0.0949 µM): 0.22%
viability, T/C (second compound 3.16 µM, first compound 0.3 µM): 0.09%
viability, T/C (second compound 10 µM, first compound 0.000949 µM): 11.3%
viability, T/C (second compound 10 µM, first compound 0.003 µM): 0.15%
viability, T/C (second compound 10 µM, first compound 0.00949 µM): 0.16%
viability, T/C (second compound 10 µM, first compound 0.03 µM): 0.14%
viability, T/C (second compound 10 µM, first compound 0.0949 µM): 0.23%
viability, T/C (second compound 10 µM, first compound 0.3 µM): 0.11%

IC50 (compound alone, run of 08/14/2023): 49.5 nM [middle of 12 runs]
SMILES: CN1CCN(c2cc(C(=O)Nc3cc4cc(-c5cnn(C)c5)ccc4cn3)ccn2)CC1
viability, T/C (compound 0.0316 µM): 70.5% [middle of 12 runs]
viability, T/C (compound 0.1 µM): 20% [middle of 12 runs]
viability, T/C (compound 0.316 µM): 2.17% [middle of 12 runs]
viability, T/C (compound 1 µM): 0.13% [middle of 8 runs]
viability, T/C (compound 3.16 µM): 0.17% [middle of 7 runs]
viability, T/C (compound 10 µM): 0.13% [middle of 8 runs]
